Measured values published in ChEMBL document CHEMBL3526052 (Drug Metab Dispos, 2013).

Experiments:
[1] = Tmax in CD-1 mouse brain at 0.1 mg/kg, iv administered as bolus dose in presence of ENT1 inhibitor NBMPR-P; assay type: ADME, organism-based; design: dose 0.1 mg/kg, route intravenous
[2] = Tmax in CD-1 mouse brain at 0.1 mg/kg, iv administered as bolus dose in absence of ENT1 inhibitor NBMPR-P; assay type: ADME, organism-based; design: dose 0.1 mg/kg, route intravenous
[3] = target: T1, Equilibrative nucleoside transporter 1 (Homo sapiens, UniProt Q99808); assay: Binding affinity to recombinant human ENT1 expressed in Saccharomyces cerevisiae assessed as inhibition of [3H]-uridine transport after 15 mins by scintillation counting analysis; assay type: ADME; conditions: for Ki: read-out: Ki(app)
T1 sequence (Q99808 whole entry): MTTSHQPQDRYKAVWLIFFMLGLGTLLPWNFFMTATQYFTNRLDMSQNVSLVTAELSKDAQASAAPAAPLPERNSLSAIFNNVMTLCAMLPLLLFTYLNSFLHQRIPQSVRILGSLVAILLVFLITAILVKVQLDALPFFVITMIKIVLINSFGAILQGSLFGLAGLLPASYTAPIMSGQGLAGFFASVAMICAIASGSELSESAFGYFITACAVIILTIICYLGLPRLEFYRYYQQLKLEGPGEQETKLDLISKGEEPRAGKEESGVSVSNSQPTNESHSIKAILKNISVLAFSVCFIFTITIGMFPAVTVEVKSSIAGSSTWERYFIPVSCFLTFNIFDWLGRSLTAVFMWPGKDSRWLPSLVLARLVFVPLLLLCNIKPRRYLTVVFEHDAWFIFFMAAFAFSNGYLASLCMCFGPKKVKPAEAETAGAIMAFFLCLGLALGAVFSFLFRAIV

[4] = target: T2, Equilibrative nucleoside transporter 2 (Homo sapiens, UniProt Q14542); assay: Binding affinity to recombinant human ENT2 expressed in Saccharomyces cerevisiae assessed as inhibition of [3H]-uridine transport after 15 mins by scintillation counting analysis; assay type: ADME; conditions: for Ki: read-out: Ki(app)
T2 sequence (Q14542 whole entry): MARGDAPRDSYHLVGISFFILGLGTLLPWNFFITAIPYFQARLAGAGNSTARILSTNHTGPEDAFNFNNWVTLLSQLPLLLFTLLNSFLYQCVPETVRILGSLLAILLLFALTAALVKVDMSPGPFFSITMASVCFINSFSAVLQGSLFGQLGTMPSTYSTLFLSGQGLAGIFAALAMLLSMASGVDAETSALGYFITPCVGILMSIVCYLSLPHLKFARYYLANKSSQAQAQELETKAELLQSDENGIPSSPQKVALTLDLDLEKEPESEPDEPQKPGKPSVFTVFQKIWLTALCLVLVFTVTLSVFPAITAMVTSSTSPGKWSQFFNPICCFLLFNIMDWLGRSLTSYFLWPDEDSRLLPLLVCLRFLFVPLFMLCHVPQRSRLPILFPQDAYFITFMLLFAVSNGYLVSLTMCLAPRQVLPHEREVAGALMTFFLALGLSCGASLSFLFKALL

[5] = target: T3, Sodium/nucleoside cotransporter 1 (Homo sapiens, UniProt O00337); assay: Binding affinity to recombinant human CNT1 expressed in Saccharomyces cerevisiae assessed as inhibition of [3H]-uridine transport after 15 mins by scintillation counting analysis; assay type: ADME; conditions: for Ki: read-out: Ki(app)
T3 sequence (O00337 whole entry): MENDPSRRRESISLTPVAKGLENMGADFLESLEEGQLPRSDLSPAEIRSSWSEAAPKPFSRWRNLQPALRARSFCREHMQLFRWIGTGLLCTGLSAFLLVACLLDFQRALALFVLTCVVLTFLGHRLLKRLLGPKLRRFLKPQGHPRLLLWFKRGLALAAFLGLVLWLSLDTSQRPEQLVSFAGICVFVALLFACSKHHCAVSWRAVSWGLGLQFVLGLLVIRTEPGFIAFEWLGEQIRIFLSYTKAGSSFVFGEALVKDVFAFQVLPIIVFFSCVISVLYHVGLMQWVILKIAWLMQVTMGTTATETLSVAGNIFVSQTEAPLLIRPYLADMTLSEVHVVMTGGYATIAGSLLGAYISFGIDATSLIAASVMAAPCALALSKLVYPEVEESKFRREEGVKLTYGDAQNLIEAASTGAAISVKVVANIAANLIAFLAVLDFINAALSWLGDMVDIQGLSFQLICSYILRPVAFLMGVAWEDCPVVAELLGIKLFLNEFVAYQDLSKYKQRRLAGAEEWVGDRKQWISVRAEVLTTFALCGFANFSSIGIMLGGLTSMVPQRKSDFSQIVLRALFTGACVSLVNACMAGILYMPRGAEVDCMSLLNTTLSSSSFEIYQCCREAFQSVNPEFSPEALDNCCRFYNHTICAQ

[6] = target: T4, Sodium/nucleoside cotransporter 2 (Homo sapiens, UniProt O43868); assay: Binding affinity to recombinant human CNT2 expressed in Saccharomyces cerevisiae assessed as inhibition of [3H]-uridine transport after 15 mins by scintillation counting analysis; assay type: ADME; conditions: for Ki: read-out: Ki(app)
T4 sequence (O43868 whole entry): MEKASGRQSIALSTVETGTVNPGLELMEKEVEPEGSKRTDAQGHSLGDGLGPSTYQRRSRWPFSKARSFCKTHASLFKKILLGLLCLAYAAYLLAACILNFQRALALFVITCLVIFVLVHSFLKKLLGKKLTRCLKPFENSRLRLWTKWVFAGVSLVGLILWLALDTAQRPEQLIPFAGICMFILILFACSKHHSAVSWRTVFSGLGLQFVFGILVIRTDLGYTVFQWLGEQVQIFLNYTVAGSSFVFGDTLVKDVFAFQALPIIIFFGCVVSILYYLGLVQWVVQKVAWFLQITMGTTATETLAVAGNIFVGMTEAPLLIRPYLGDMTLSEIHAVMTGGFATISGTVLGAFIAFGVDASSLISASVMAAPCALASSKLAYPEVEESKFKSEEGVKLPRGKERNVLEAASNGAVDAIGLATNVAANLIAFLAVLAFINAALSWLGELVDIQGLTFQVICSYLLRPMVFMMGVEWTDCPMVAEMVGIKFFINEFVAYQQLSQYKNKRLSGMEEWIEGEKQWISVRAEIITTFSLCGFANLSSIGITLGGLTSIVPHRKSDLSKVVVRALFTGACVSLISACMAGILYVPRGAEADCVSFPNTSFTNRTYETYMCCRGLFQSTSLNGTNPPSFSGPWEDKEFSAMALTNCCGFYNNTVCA

[7] = target: T5, Solute carrier family 28 member 3 (Homo sapiens, UniProt Q9HAS3); assay: Binding affinity to recombinant human CNT3 expressed in Saccharomyces cerevisiae assessed as inhibition of [3H]-uridine transport after 5 mins by scintillation counting analysis; assay type: ADME; conditions: for Ki: read-out: Ki(app)
T5 sequence (Q9HAS3 whole entry): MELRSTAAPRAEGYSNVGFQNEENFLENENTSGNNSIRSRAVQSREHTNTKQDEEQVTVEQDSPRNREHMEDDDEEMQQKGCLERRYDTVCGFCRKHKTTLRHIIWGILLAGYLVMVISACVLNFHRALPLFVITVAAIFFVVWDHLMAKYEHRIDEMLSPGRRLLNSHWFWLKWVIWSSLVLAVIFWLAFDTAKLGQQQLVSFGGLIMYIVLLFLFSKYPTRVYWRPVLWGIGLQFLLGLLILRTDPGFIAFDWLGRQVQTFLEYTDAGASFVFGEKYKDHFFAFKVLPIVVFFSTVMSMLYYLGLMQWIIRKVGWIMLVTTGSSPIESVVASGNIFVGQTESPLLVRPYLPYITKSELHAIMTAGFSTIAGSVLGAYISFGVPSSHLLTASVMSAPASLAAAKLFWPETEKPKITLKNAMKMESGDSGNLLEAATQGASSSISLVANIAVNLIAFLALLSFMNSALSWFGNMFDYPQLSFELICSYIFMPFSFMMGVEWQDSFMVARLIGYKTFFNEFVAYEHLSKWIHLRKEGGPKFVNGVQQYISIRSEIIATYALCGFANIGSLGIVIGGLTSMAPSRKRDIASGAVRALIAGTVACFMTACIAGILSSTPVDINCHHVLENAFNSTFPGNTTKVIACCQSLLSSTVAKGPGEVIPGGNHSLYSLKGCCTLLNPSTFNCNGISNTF

[8] = target: T1, Equilibrative nucleoside transporter 1; assay: Drug transport in human CCRF-CEM cells assessed as ENT1-mediated uptake measured per 10^6 cells after 5 secs by Michaelis-Menten equation analysis; assay type: ADME, cell-based; conditions: 5 s
Xenopus laevis = species: Xenopus laevis; assay: Drug uptake in water-injected Xenopus laevis oocytes up to 1 mM measured per 2 mins; assay type: ADME, organism-based; conditions: in vivo
[9] = target: T1, Equilibrative nucleoside transporter 1; assay: Drug transport in Xenopus laevis oocytes assessed as recombinant human ENT1-mediated uptake up to 1 mM measured per 2 mins by Michaelis-Menten equation analysis; assay type: ADME, cell-based
[10] = Cmax in CD-1 mouse brain at 0.1 mg/kg, iv administered as bolus dose in absence of ENT1 inhibitor NBMPR-P; assay type: ADME, organism-based; design: dose 0.1 mg/kg, route intravenous
[11] = Cmax in CD-1 mouse brain at 0.1 mg/kg, iv administered as bolus dose in presence of ENT1 inhibitor NBMPR-P; assay type: ADME, organism-based; design: dose 0.1 mg/kg, route intravenous
Brain [12] = assay: AUC (0 to 4 hrs) in CD-1 mouse brain at 0.1 mg/kg, iv administered as bolus dose in absence of ENT1 inhibitor NBMPR-P; assay type: ADME, organism-based; design: time < 4 hr, dose 0.1 mg/kg, route intravenous; conditions: in vivo
Brain [13] = assay: AUC (0 to 4 hrs) in CD-1 mouse brain at 0.1 mg/kg, iv administered as bolus dose in presence of ENT1 inhibitor NBMPR-P; assay type: ADME, organism-based; design: time < 4 hr, dose 0.1 mg/kg, route intravenous; conditions: in vivo
[14] = Apparent volume of distribution at steady state in CD-1 mouse at 0.1 mg/kg, iv administered as bolus dose in absence of ENT1 inhibitor NBMPR-P; assay type: ADME, organism-based; design: dose 0.1 mg/kg, route intravenous; conditions: in vivo, read-out: Vdss(app)
[15] = Apparent volume of distribution at steady state in CD-1 mouse at 0.1 mg/kg, iv administered as bolus dose in presence of ENT1 inhibitor NBMPR-P; assay type: ADME, organism-based; design: dose 0.1 mg/kg, route intravenous; conditions: in vivo, read-out: Vdss(app)
[16] = Elimination half life in CD-1 mouse at 0.1 mg/kg, iv administered as bolus dose in absence of ENT1 inhibitor NBMPR-P; assay type: ADME, organism-based; design: dose 0.1 mg/kg, route intravenous; conditions: in vivo, read-out: beta t1/2 (converted)
[17] = Elimination half life in CD-1 mouse at 0.1 mg/kg, iv administered as bolus dose in presence of ENT1 inhibitor NBMPR-P; assay type: ADME, organism-based; design: dose 0.1 mg/kg, route intravenous; conditions: in vivo, read-out: beta t1/2 (converted)
[18] = AUC (0 to infinity) in CD-1 mouse at 0.1 mg/kg, iv administered as bolus dose in absence of ENT1 inhibitor NBMPR-P; assay type: ADME, organism-based; design: time infinity, dose 0.1 mg/kg, route intravenous; conditions: plasma
[19] = AUC (0 to infinity) in CD-1 mouse at 0.1 mg/kg, iv administered as bolus dose in presence of ENT1 inhibitor NBMPR-P; assay type: ADME, organism-based; design: time infinity, dose 0.1 mg/kg, route intravenous; conditions: plasma
[20] = target: T6, ENT1 (equilibrative nucleoside transporter 1) (Homo sapiens, UniProt Q99808); assay: Drug transport in Xenopus laevis oocytes assessed as recombinant human ENT1-mediated uptake up to 1 mM by Michaelis-Menten equation analysis; assay type: ADME, cell-based; conditions: Xenopus laevis oocytes expressing recombinant human ENT1, read-out: Km(app)
T6 sequence (Q99808 whole entry): T1 sequence (Q99808 whole entry)

[21] = target: T6, ENT1 (equilibrative nucleoside transporter 1); assay: Drug transport in human CCRF-CEM cells assessed as ENT1-mediated uptake after 5 secs by Michaelis-Menten equation analysis; assay type: ADME, cell-based

Structure (SMILES) | IC50 [3] [µM] | Ki [3] [µM] | IC50 [4] [µM] | Ki [4] [µM] | IC50 [5] [µM] | Ki [5] [µM] | IC50 [6] [µM] | Ki [6] [µM] | IC50 [7] [µM] | Ki [7] [µM] | other results
OC[C@H]1O[C@@H](n2cnc3c(N[C@@H]4CCOC4)ncnc32)[C@H](O)[C@@H]1O [TECADENOSON] | 12 | 11 | 190 | 189 | 41 | 37 | 239 | 231 | 200 | 126 | Tmax [1]: 11.4 min; Tmax [2]: 6.6 min; Vmax [8]: 3.4 pmol; Drug uptake (Xenopus laevis): 5 pmol; Vmax [9]: 46.7 pmol; Cmax [10]: 23 ng/g; Cmax [11]: 4 ng/g; AUC (Brain [12]): 22 ng·h/g; AUC (Brain [13]): 7 ng·h/g; Vd [14]: 2.8 L/kg; Vd [15]: 2.2 L/kg; half-life [16]: 42 min; half-life [17]: 66 min; AUC(0-inf) [18]: 16.4 ng·h/mL; AUC(0-inf) [19]: 50.5 ng·h/mL; Km [20]: 196 µM; Km at 5 s [21]: 24 µM
O=c1ccn([C@@H]2O[C@H](CO)[C@@H](O)[C@H]2O)c(=O)[nH]1 [URIDINE] | 52 | 51 | 234 | 242 | 5.8 | 5.2 | 32 | 31 | 5.4 | 3.4 | 
